This is an account of results in patent US20040220266A1, “Composition and method for enhancing the bioavailability of calcium and magnesium in dietary supplements and food additives” (priority 2002, published 2004).

For data set [1] the following is noted: saturated aqueous solution, 20° C.; cited from earlier work.
For data set [2] the following is noted: oral dietary supplement; cited from earlier work.
The nature of data set [3]: Solubility in water / saturated aqueous solution.
Description: The term “soluble” as used herein means capable of being dissolved, going into a liquid state from a solid state.
Data set [4] is described as follows: Storage stability of the powders. As to conditions: shelf life. Format: physicochemical.

With “d-gluconic acid calcium salt [Calcium gluconate]”, in data set [1], the “pH of saturated solution” value is recorded as 6-7. For `O.O.O=P([O-])([O-])O.[Ca+2]` [dibasic calcium phosphate dihydrate], the “bioavailability / absorption of calcium (in words)” value in data set [2] is “poor”.

As to `O.O.O.O.O=C([O-])CC(O)(CC(=O)[O-])C(=O)[O-].O=C([O-])CC(O)(CC(=O)[O-])C(=O)[O-].[Ca+2].[Ca+2].[Ca+2]` [Calcium citrate tetrahydrate], in data set [2], the “bioavailability / absorption of calcium (in words)” value is given as “better absorbed than the carbonate or phosphates of calcium”. Regarding `CC(O)C(=O)[O-].CC(O)C(=O)[O-].O.O.O.O.O.[Ca+2]` (stereo not shown) [calcium lactate pentahydrate, 2-hydroxypropanoic acid calcium salt pentahydrate], the “bioavailability / absorption of calcium (in words)” value in data set [2] is recorded as “good”.

With “magnesium 3-hydroxy-3-methylbutyrate [MgHMB]”, the “concentration of saturated aqueous solution” value in data set [3] (20° C.) is on record as 32 % by weight. In addition, the “solubility over pH range (in words)” value in data set [3] (broad range of pH values) is listed as “highly soluble”. Besides, the “pH of aqueous solution (in words)” value in data set [3] (pure salt dissolved in water) was “nearly neutral or slightly alkaline”. Also, the “stability of the powder (in words)” value in data set [4] is given as “stable powders with long shelf lives”. Regarding `O=P([O-])([O-])[O-].O=P([O-])([O-])[O-].[Ca+2].[Ca+2].[Ca+2]` [tribasic calcium phosphate], the “bioavailability / absorption of calcium (in words)” value in data set [2] is listed as “poor”. For `O=C([O-])[O-].[Ca+2]` [Calcium carbonate], the “bioavailability / absorption of calcium (in words)” value in data set [2] is given as “relatively poor”.
